These results are taken from publication PMC10573977, “PNA6, a Lactosyl Analogue of Angiotensin-(1-7), Reverses Pain Induced in Murine Models of Inflammation, Chemotherapy-Induced Peripheral Neuropathy, and Metastatic Bone Disease” (International Journal of Molecular Sciences, 2023).

For data set [1], the target named is Mas receptor (Homo sapiens) (UniProt P04201). The note with it: cited from earlier work.
The conditions of data set [2]: no reference given, cited from earlier work. An excerpt: Our team has taken a novel approach to treating CIPN by taking advantage of our extensive experience with the G-protein linked Mas receptor and its agonist Ang-(1-7) to develop a platform of glycosylated Ang-(1-7) Mas receptor agonists including PNA5 and PNA6 that have outstanding brain penetration, enhanced bioavailability, decreased brain and peripheral inflammation, improved cerebral blood flow, and restored cognitive function in our preclinical vascular dementia and TBI animal models. Activation of Mas decreases ROS and brain inflammation, increases cerebral circulation, increases inductio ...

A further data set in a line: in vivo. The note with it: male, Sprague Dawley, rat, serum, iv, 10 mg/kg.
The next data set relates to naïve mice. The note with it: 1 mg/kg i.p., 30, 60, 90 and 120 min after treatment, 10 rpm, cut-off 180 s, vs vehicle.
Another data set deals with cancer-induced bone loss. The data set can be described thus: Radiographic analysis of femur bone integrity (bone score). In kind it is in vivo, mouse. An excerpt: Radiographic images of mice’s right femurs with established (CIBP) or sham were captured using a Faxitron machine. Bone loss was rated and evaluated using a bone score scale by a blinded observer where 0 = normal healthy bone; 1 = 1–3 lesions; 2 = 4 to 6 lesions; 3 = uni-cortical bone fractures; and 4 = bicortical bone fractures.
A digital Faxitron machine (Ultrafocus; Faxitron Bioptics, Tucson, AZ) was used to image the femurs of all mice (all groups in chronic studies) on days 0 (baseline), 7, 10, and 14 post-surgery to determine an average bone score and to exclude the data for any mice with full cortical fracture before day 14. Two blinded observers evaluated the images using a 5-point bone rating scale. Mice were anesthetized with 80 mg/kg ketamine to 12 mg/kg xylazine (in a 10 mL/kg volume) on day 0 before the surgery, D7, D10, and D14, and radiographs were acquired. The bone scoring scale was as follows: 0 = normal bone, 1 = 1–3 lesions with no fracture, 2 = 4+ lesions with no fracture, 3 = uni-cortical, full thickness fracture, and 4 = bicortical, full thickness fracture. Animals with bicortical, full fractures were euthanized as our IACUC protocol measures dictated.

Another data set deals with Mas receptor (MasR1). The note with it: cited from earlier work. An excerpt: The renin-angiotensin system (RAS) is a crucial player in regulating blood pressure and fluid homeostasis. The octapeptide, Angiotensin II, is the first significant end product. Angiotensin II binds strongly to G-coupled protein receptors (GPCRs), Angiotensin receptor type 1 (AT1), to produce vasoconstriction, sodium-water retention, inflammation, and fibrosis; and it binds weakly to Angiotensin II receptor type II (AT2), which produces vasodilation and angiogenesis. Angiotensin II is cleaved by Angiotensin-converting enzyme 2 (ACE2) to yield the heptapeptide, Ang-(1-7), which ha ...

Residues, ends and D or L forms follow the SMILES beside them. *: point of attachment. X1 = OC[C@H]1O[C@@H](O[C@H]2[C@H](O)[C@@H](O)[C@H](*)O[C@@H]2CO)[C@H](O)[C@@H](O)[C@H]1O

Sequence of Mas receptor (Homo sapiens) (P04201 whole entry): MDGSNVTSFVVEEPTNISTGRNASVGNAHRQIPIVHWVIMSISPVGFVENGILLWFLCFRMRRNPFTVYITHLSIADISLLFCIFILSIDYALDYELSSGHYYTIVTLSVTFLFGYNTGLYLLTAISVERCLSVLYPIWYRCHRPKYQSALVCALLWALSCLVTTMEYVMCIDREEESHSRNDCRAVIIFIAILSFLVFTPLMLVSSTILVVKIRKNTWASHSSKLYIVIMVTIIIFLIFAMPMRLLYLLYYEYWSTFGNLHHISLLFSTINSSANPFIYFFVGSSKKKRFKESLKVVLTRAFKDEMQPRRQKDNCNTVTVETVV
Sequence of Angiotensin-(1-7) (P01019 whole entry, looked up): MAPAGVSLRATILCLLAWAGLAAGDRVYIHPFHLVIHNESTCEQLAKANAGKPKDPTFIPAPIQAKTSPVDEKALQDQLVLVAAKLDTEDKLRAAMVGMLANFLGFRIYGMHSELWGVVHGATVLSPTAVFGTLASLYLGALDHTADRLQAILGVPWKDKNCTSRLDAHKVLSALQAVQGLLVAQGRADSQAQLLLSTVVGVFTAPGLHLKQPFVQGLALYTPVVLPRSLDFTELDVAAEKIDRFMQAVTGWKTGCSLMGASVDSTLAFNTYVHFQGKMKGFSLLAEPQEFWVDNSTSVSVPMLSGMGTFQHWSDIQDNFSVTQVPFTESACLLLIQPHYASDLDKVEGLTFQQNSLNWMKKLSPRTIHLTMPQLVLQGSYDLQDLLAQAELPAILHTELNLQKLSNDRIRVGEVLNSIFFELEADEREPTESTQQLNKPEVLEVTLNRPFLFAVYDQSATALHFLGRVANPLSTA
Method for in vivo: To directly compare the in vivo lifetime and the ability of PNA6 to cross the blood–brain barrier (BBB), we devised a methodology that combines simultaneous blood sampling with microdialysis. PNA6 was administered via a single tail vein injection at a dosage of 10 mg/kg. Blood samples were collected at specific time intervals relative to the injection, including t = −10, 1, 5, 10, 20, 30, 40, 50, 60, 70, 80, and 90 min (with t = 0 corresponding to the moment of injection) as shown in Figure 4. The determination of serum and cerebrospinal fluid (CSF) concentrations of PNA6 involved the utilization of a calibration curve, which accounted for factors such as dilution and probe recovery specific to each experimental condition.
Animals for Dialysis: Male Sprague Dawley rats (275–325 g) were used for dialysis experiments in vivo.
The compounds were injected intravenously at 10 mg/kg via a single tail vein injection. Blood draws were taken at t = −10, 1, 5, 10, 20, 30, 40, 50, 60, 70, 80, and 90 min (where t = 0 corresponds to injection). Microdialysis fractions were time-locked with blood draws at 10 min increments such that blood draws correlated with the median time of the microdialysis fraction. For microdialysis, a dual syringe pump (PHD 2000, Harvard Apparatus, Holliston, MA, USA) was set to a flow rate of 0.5 mL/minute. […]
Method for naïve mice: The rotarod test is widely used to evaluate the motor coordination of rodents, and we used it to determine the motor effect of PNA6 to prevent interpretation of behavior as a false positive. Four days before testing, naïve mice were trained to acclimate to the rotating rod (LE8505 Rota-Rod, Panlab Harvard Apparatus, Spain) at a constant speed of 10 rpm. A maximal cut-off time of 180 s was used to prevent exhaustion. On the day of testing, mice were baselined and re-evaluated at 30, 60, 90, and 120 min after treatment.

Usually Kd stands for the equilibrium constant for the complex coming apart. Take Angiotensin-(1-7) (from UniProt P01019): the equilibrium dissociation constant (Kd) in data set [1] is 0.83 nM.
A word on the Tmax: it is the time at which the peak concentration occurs. The term half-life denotes the time needed for the level to fall by half in the phase considered. A lower half-life goes with fast loss. On to `CC[C@H](C)[C@H](NC(=O)[C@H](Cc1ccc(O)cc1)NC(=O)[C@@H](NC(=O)[C@H](CCCNC(=N)N)NC(=O)[C@@H](N)CC(=O)O)C(C)C)C(=O)N[C@@H](Cc1c[nH]cn1)C(=O)N[C@@H](CO[C@@H]1O[C@H](CO)[C@@H](O[C@@H]2O[C@H](CO)[C@H](O)[C@H](O)[C@H]2O)[C@H](O)[C@H]1O)C(N)=O` [PNA6, Asp-Arg-Val-Tyr-Ile-His-Ser-(O-β-Lact)-amide] (H-DRVYIHS(X1)-NH2), for which the “penetration into the CNS” value in data set [2] ('has been shown') is reported as “good penetration into the CNS”. Also, in “in vivo”, the time of peak concentration (Tmax) is 1 min and the half-life was found to be 22.1 min. In addition, the “time spent on the rotating rod” value in the data set on naïve mice is listed as “neither increased nor decreased the time”. In addition, in the data set with cancer-induced bone loss (cancer-bearing mice, chronic treatment, radiographs day 14, n = 10–12), the “cancer-induced bone loss vs vehicle” value is “did not exacerbate cancer-induced bone loss degradation”. Also, the “bone remodeling in sham animals” value in the data set with cancer-induced bone loss (sustained saline or PNA6, day 14) is on record as “had no change in bone remodeling”.
With DRVYIHP [Ang-(1-7), Angiotensin-(1-7)], in data set [2] (degraded rapidly by enzymes), the half-life in vivo entry is given as “short half-life in vivo”. For the same compound, in the data set with Mas receptor (MasR1) (greater selectivity over AT1), the “selectivity for MasR1 over AT1 receptor” value was 60 fold. For the same compound, in the data set on Mas receptor (MasR1) (greater selectivity over AT2), the “selectivity for MasR1 over AT2 receptor” value was 100 fold.
